“Also recorded” adds a separate entry of the source. Like-named read-outs stand apart in the source and are kept apart here.
Tests used:
[1] = Solubility property of 17-HPC in different excipients; format: physicochemical
Source text: However, the stable solubility concentrations vary for each excipient, with specific values provided in the last column of Table 2.

[2] = Acceptable daily intake (ADI) of excipients
Source text: The applicant has previously collaborated with other entities to develop an oral formulation of 17-α hydroxyprogesterone and obtained a patent for it.

[3] = WHO-JECFA database or supplier values; cited from earlier work

## CCCCCC(=O)O[C@]1(C(C)=O)CC[C@H]2[C@@H]3CCC4=CC(=O)CC[C@]4(C)[C@H]3CC[C@@]21C [Formulation 17-HPC, hydroxyprogesterone caproate]
[1]; Glycerol Monooleate (Maisine ® CC)
  Suggested working concentrations based on physical stability and saturated solubility results: 65 mg/g
[1]; Mono-Octanoin Glyceride (Capmul 808G)
  Suggested working concentrations based on physical stability and saturated solubility results: 120 mg/g
[1]; Oleic Acid
  Suggested working concentrations based on physical stability and saturated solubility results: 70 mg/g
[1]; Oleic Acid Glyceride (Peceol ®)
  Suggested working concentrations based on physical stability and saturated solubility results: 50 mg/g
[1]; Olive Oil
  Suggested working concentrations based on physical stability and saturated solubility results: insufficient to meet the meaningful solubility concentration required for adult formulations
[1]; PEG15 Hydroxystearate (Kolliphor ® HS15)
  Suggested working concentrations based on physical stability and saturated solubility results: cannot achieve stable solubility; also recorded: Chemically unstable
[1]; PEG35 Castor Oil (Kolliphor ® ELP)
  Suggested working concentrations based on physical stability and saturated solubility results: 30 mg/g
[1]; PEG40 Hydrogenated Castor Oil (Kolliphor ® RH40)
  Suggested working concentrations based on physical stability and saturated solubility results: cannot achieve stable solubility; also recorded: Chemically unstable
[1]; Propylene Glycol Monocaprylate (Capryol ® 90)
  Suggested working concentrations based on physical stability and saturated solubility results: 150 mg/g
[1]; Propylene Glycol Monolaurate (Lauroglycol ® 90)
  Suggested working concentrations based on physical stability and saturated solubility results: 100 mg/g

## CCCCCCCC(=O)OCC(O)CO (centres unmarked) [Glycerol monocaprylate]
[2]
  ADI/Weight 60 kg: none
[3]
  Acceptable Daily Intake (ADI): none

## Propylene glycol monocaprylate
[2]; for 60 kg body weight
  ADI/Weight 60 kg: 3.36
[3]
  Acceptable Daily Intake (ADI): 56 mg/kg/day
